Reference: PubChem BioAssay (NCI)
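Method: 48-hour compound exposure of cells in 96-well plates, five concentrations, linear interpolation of endpoints. Here, GI50 denotes the concentration required for 50% inhibition of growth. TGI is the concentration that stops growth completely.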

How the values were obtained:
Assay in all cases: NCI anticancer screen, dose series, 48 h
786-0 renal = test system: 786-0 renal
DU-145 prostate = test system: DU-145 prostate
NCI-H23 lung = test system: NCI-H23 lung
NCI-H522 lung = test system: NCI-H522 lung
OVCAR-4 ovarian = test system: OVCAR-4 ovarian
RPMI-8226 leukemia = test system: RPMI-8226 leukemia
SK-MEL-2 melanoma = test system: SK-MEL-2 melanoma
SK-MEL-5 melanoma = test system: SK-MEL-5 melanoma
U251 CNS = test system: U251 CNS
UO-31 renal = test system: UO-31 renal

Structure (SMILES) | GI50 (786-0 renal) | TGI (786-0 renal) | GI50 (DU-145 prostate) | TGI (DU-145 prostate) | GI50 (NCI-H23 lung) | TGI (NCI-H23 lung) | GI50 (NCI-H522 lung) | TGI (NCI-H522 lung) | GI50 (OVCAR-4 ovarian) | TGI (OVCAR-4 ovarian) | GI50 (RPMI-8226 leukemia) | TGI (RPMI-8226 leukemia) | GI50 (SK-MEL-2 melanoma) | TGI (SK-MEL-2 melanoma) | GI50 (SK-MEL-5 melanoma) | TGI (SK-MEL-5 melanoma) | GI50 (U251 CNS) | TGI (U251 CNS) | GI50 (UO-31 renal) | TGI (UO-31 renal)
COc1ccc(C2C(C#N)=C(N)OC3=C2COc2ccc(F)cc23)cc1OC (centres undefined) | 25.6 µM | > 100 µM | 28.2 µM | > 100 µM | 13.1 µM | 36.7 µM | 54.3 µM | > 100 µM | 24.9 µM | > 100 µM | 15.8 µM | 52.6 µM | 68.7 µM | > 100 µM | 12.9 µM | 44.9 µM | 17 µM | 59.2 µM | 43.9 µM | > 100 µM
O=C(Nc1cccc(Cl)c1Cl)c1cccc(NC2=C(Cl)C(=O)N(Cc3ccccc3)C2=O)c1 | 49.8 µM | > 100 µM | 21.2 µM | > 100 µM | 41.4 µM | > 100 µM | 12.6 µM | 54.7 µM | 57.7 µM | > 100 µM | 7.96 µM | 35.1 µM | 16.9 µM | 58.6 µM | 20.1 µM | > 100 µM | 46.2 µM | > 100 µM | 21.1 µM | > 100 µM
CCOC(=O)C1=C(C)N(N)C(=S)NC1c1ccc(C)cc1 (centres undefined) | > 100 µM | > 100 µM |  | 12.3 µM | 63.9 µM | > 100 µM | 18.2 µM | > 100 µM | 66 µM | > 100 µM | 44.7 µM | > 100 µM | 21.4 µM | > 100 µM | 13.1 µM | 30.4 µM | 24.1 µM | > 100 µM | 23.5 µM | > 100 µM
N#CC(C(=O)/C(=N/Nc1nc(=S)[nH]n1N)C(C#N)c1ccccc1)c1ccccc1 (centres undefined) |  | > 100 µM |  | > 100 µM |  | > 100 µM |  | > 100 µM |  | > 100 µM |  | > 100 µM |  | > 100 µM |  | > 100 µM |  | > 100 µM |  | > 100 µM
Cc1cc(NC(=O)c2ccc(C)c(Nc3nccc(-c4cccnc4)n3)c2)cc(-n2cnc(C)c2)c1 | 1.56 µM | 6.12 µM | 1.96 µM | 9.06 µM | 9.44 µM | > 34.1 µM | 4.89 µM | 15.3 µM | 0.999 µM | 2.19 µM | 6.45 µM | 27.6 µM | 5.03 µM | 12.9 µM | 5.04 µM | 12.7 µM | 1.99 µM | 7.61 µM | 1.97 µM | 5.3 µM
COc1cc2c(cc1OC)C13CCN4CC5=CCOC6CC(=O)N2C1C6C5CC43O (centres undefined) |  | > 100 µM |  | > 100 µM |  | > 100 µM |  | > 100 µM |  | > 100 µM |  | > 100 µM |  | > 100 µM |  | > 100 µM |  | > 100 µM |  | > 100 µM
O=C(O)c1ccccc1-c1ccccc1C(=O)Nc1ccc2c(c1)Cc1cc(F)ccc1-2 |  | > 100 µM |  | > 100 µM |  | 36.5 µM |  | 63 µM |  | > 100 µM |  | 82.8 µM |  | 37.9 µM |  | 47.2 µM |  | 50.2 µM |  | > 100 µM
COC(=O)[C@@H](NC(=O)[C@@H](OC)[C@@H]1Cc2cc3cc(OC4CC(OC5CC(O)C(O)C(C)O5)C(O)C(C)O4)c(C)c(O)c3c(O)c2C(=O)[C@H]1OC1CC(OC2CC(OC3CC(C)(O)C(O)C(C)O3)C(O)C(C)O2)C(O)C(C)O1)C(C)C (some centres undefined) | 0.175 µM | 5.98 µM | 0.158 µM | > 32.5 µM | 0.144 µM | 13.5 µM | 0.112 µM | 2.02 µM | 0.166 µM | 14 µM | 0.0918 µM | 0.619 µM | 0.194 µM | 7.94 µM | 0.0727 µM | 0.408 µM | 0.106 µM | 1.6 µM | 0.129 µM | 4.4 µM
